Assay results reported in ChEMBL document CHEMBL4673219, “Novel 5,6-disubstituted pyrrolo[2,3-d]pyrimidine derivatives as broad spectrum antiproliferative agents: Synthesis, cell based assays, kinase profile and molecular docking study” (Bioorg Med Chem, 2018).

What was measured:
HT-29 = assay: Growth inhibition of human HT-29 cells assessed as growth percentage at 0.1 uM incubated for 48 hrs by sulforhodamine B assay relative to control; type: functional; conditions: read-out: Activity
LOX IMVI = assay: Growth inhibition of human LOX IMVI cells incubated for 48 hrs by sulforhodamine B assay; type: functional; conditions: Homo sapiens, LOX IMVI
UACC-62 = assay: Growth inhibition of human UACC-62 cells assessed as growth percentage at 100 uM incubated for 48 hrs by sulforhodamine B assay relative to control; type: functional; conditions: read-out: Activity
HOP-62 = assay: Growth inhibition of human HOP-62 cells assessed as growth percentage at 0.1 uM incubated for 48 hrs by sulforhodamine B assay relative to control; type: functional; conditions: read-out: Activity
SF-268 [1] = assay: Growth inhibition of human SF-268 cells incubated for 48 hrs by sulforhodamine B assay; type: functional
T47D = assay: Growth inhibition of human T47D cells assessed as growth percentage at 10 uM incubated for 48 hrs by sulforhodamine B assay relative to control; type: functional; conditions: read-out: Activity
OVCAR-4 = assay: Growth inhibition of human OVCAR-4 cells assessed as growth percentage at 0.1 uM incubated for 48 hrs by sulforhodamine B assay relative to control; type: functional; conditions: read-out: Activity
SK-MEL-28 = assay: Growth inhibition of human SK-MEL-28 cells assessed as growth percentage at 10 uM incubated for 48 hrs by sulforhodamine B assay relative to control; type: functional; conditions: read-out: Activity
K562 [2] = assay: Growth inhibition of human K562 cells assessed as growth percentage at 1 uM incubated for 48 hrs by sulforhodamine B assay relative to control; type: functional; conditions: read-out: Activity
NCI-H23 [3] = assay: Growth inhibition of human NCI-H23 cells assessed as growth percentage at 0.1 uM incubated for 48 hrs by sulforhodamine B assay relative to control; type: functional; conditions: read-out: Activity
786-0 = assay: Growth inhibition of human 786-0 cells assessed as growth percentage at 0.01 uM incubated for 48 hrs by sulforhodamine B assay relative to control; type: functional; conditions: read-out: Activity
NCI/ADR-RES = assay: Growth inhibition of human NCI/ADR-RES cells assessed as growth percentage at 100 uM incubated for 48 hrs by sulforhodamine B assay relative to control; type: functional; conditions: read-out: Activity
SN12C [4] = assay: Growth inhibition of human SN12C cells incubated for 48 hrs by sulforhodamine B assay; type: functional
HCC 2998 [5] = assay: Growth inhibition of human HCC 2998 cells assessed as growth percentage at 0.01 uM incubated for 48 hrs by sulforhodamine B assay relative to control; type: functional; conditions: read-out: Activity
HCT-15 = assay: Growth inhibition of human HCT-15 cells incubated for 48 hrs by sulforhodamine B assay; type: functional; conditions: Homo sapiens
M14 = assay: Growth inhibition of human M14 cells assessed as growth percentage at 100 uM incubated for 48 hrs by sulforhodamine B assay relative to control; type: functional; conditions: read-out: Activity
HCC 2998 [6] = assay: Growth inhibition of human HCC 2998 cells assessed as growth percentage at 0.1 uM incubated for 48 hrs by sulforhodamine B assay relative to control; type: functional; conditions: read-out: Activity
NCI-H226 = assay: Growth inhibition of human NCI-H226 cells assessed as growth percentage at 0.1 uM incubated for 48 hrs by sulforhodamine B assay relative to control; type: functional; conditions: read-out: Activity
NCI-H23 [7] = assay: Growth inhibition of human NCI-H23 cells assessed as growth percentage at 10 uM incubated for 48 hrs by sulforhodamine B assay relative to control; type: functional; conditions: read-out: Activity
A498 = assay: Growth inhibition of human A498 cells assessed as growth percentage at 10 uM incubated for 48 hrs by sulforhodamine B assay relative to control; type: functional; conditions: read-out: Activity
SN12C [8] = assay: Growth inhibition of human SN12C cells assessed as growth percentage at 100 uM incubated for 48 hrs by sulforhodamine B assay relative to control; type: functional; conditions: read-out: Activity
RPMI-8226 = assay: Growth inhibition of human RPMI-8226 cells assessed as growth percentage at 0.01 uM incubated for 48 hrs by sulforhodamine B assay relative to control; type: functional; conditions: read-out: Activity
SK-OV-3 = assay: Growth inhibition of human SK-OV-3 cells assessed as growth percentage at 10 uM incubated for 48 hrs by sulforhodamine B assay relative to control; type: functional; conditions: read-out: Activity
NCI-H322M = assay: Growth inhibition of human NCI-H322M cells assessed as growth percentage at 10 uM incubated for 48 hrs by sulforhodamine B assay relative to control; type: functional; conditions: read-out: Activity
NCI-H460 [9] = assay: Growth inhibition of human NCI-H460 cells assessed as growth percentage at 0.01 uM incubated for 48 hrs by sulforhodamine B assay relative to control; type: functional; conditions: read-out: Activity
[10] = Cytotoxicity against human HFF-1 cells assessed as cell growth inhibition by MTT assay; type: cell-based
MDA-MB-468 = assay: Growth inhibition of human MDA-MB-468 cells assessed as growth percentage at 100 uM incubated for 48 hrs by sulforhodamine B assay relative to control; type: functional; conditions: read-out: Activity
NCI-H460 [11] = assay: Growth inhibition of human NCI-H460 cells assessed as growth percentage at 10 uM incubated for 48 hrs by sulforhodamine B assay relative to control; type: functional; conditions: read-out: Activity
CCRF-CEM [12] = assay: Growth inhibition of human CCRF-CEM cells incubated for 48 hrs by sulforhodamine B assay; type: functional; conditions: Homo sapiens, CCRF-CEM
K562 [13] = assay: Growth inhibition of human K562 cells assessed as growth percentage at 10 uM incubated for 48 hrs by sulforhodamine B assay relative to control; type: functional; conditions: read-out: Activity
SK-MEL-5 = assay: Growth inhibition of human SK-MEL-5 cells incubated for 48 hrs by sulforhodamine B assay; type: functional; conditions: for CC50: read-out: LC50 (the source's name)
MOLT-4 = assay: Growth inhibition of human MOLT-4 cells assessed as growth percentage at 0.01 uM incubated for 48 hrs by sulforhodamine B assay relative to control; type: functional; conditions: read-out: Activity
CCRF-CEM [14] = assay: Growth inhibition of human CCRF-CEM cells assessed as growth percentage at 0.1 uM incubated for 48 hrs by sulforhodamine B assay relative to control; type: functional; conditions: read-out: Activity
SF-268 [15] = assay: Growth inhibition of human SF-268 cells assessed as growth percentage at 10 uM incubated for 48 hrs by sulforhodamine B assay relative to control; type: functional; conditions: read-out: Activity
HOP-92 = assay: Growth inhibition of human HOP-92 cells assessed as growth percentage at 100 uM incubated for 48 hrs by sulforhodamine B assay relative to control; type: functional; conditions: read-out: Activity
SF-268 [16] = assay: Growth inhibition of human SF-268 cells assessed as growth percentage at 100 uM incubated for 48 hrs by sulforhodamine B assay relative to control; type: functional; conditions: read-out: Activity
OVCAR-3 = assay: Growth inhibition of human OVCAR-3 cells assessed as growth percentage at 0.01 uM incubated for 48 hrs by sulforhodamine B assay relative to control; type: functional; conditions: read-out: Activity
CAKI-1 = assay: Growth inhibition of human CAKI-1 cells assessed as growth percentage at 1 uM incubated for 48 hrs by sulforhodamine B assay relative to control; type: functional; conditions: read-out: Activity

Nc1nc2[nH]c(CN3CCN(c4cc(Cl)cc(Cl)c4)CC3)c(CN3CCN(c4cc(Cl)cc(Cl)c4)CC3)c2c(=O)[nH]1
growth at 0.1 µM (HT-29): 110% | GI50 (LOX IMVI): 1.94 µM | TGI (LOX IMVI): 3.57 µM | growth at 100 µM (UACC-62): -49% | growth at 0.1 µM (HOP-62): 99% | GI50 (SF-268 [1]): 1.77 µM | TGI (SF-268 [1]): 3.35 µM | growth at 10 µM (T47D): 62.9% | growth at 0.1 µM (OVCAR-4): 95% | growth at 10 µM (SK-MEL-28): 90.8% | growth at 1 µM (K562 [2]): 83% | growth at 0.1 µM (NCI-H23 [3]): 107% | growth at 0.01 µM (786-0): 94% | growth at 100 µM (NCI/ADR-RES): 55% | GI50 (SN12C [4]): 1.91 µM | TGI (SN12C [4]): 3.91 µM | growth at 0.01 µM (HCC 2998 [5]): 106% | TGI (HCT-15; HCT-15): 4.05 µM | GI50 (HCT-15; HCT-15, 48 h): 1.93 µM | growth at 100 µM (M14): -54% | growth at 0.1 µM (HCC 2998 [6]): 99% | growth at 0.1 µM (NCI-H226): 89% | growth at 10 µM (NCI-H23 [7]): 85.7% | growth at 10 µM (A498): 64.4% | growth at 100 µM (SN12C [8]): -35% | growth at 0.01 µM (RPMI-8226): 102% | growth at 10 µM (SK-OV-3): 90.2% | growth at 10 µM (NCI-H322M): 64.3% | growth at 0.01 µM (NCI-H460 [9]): 105% | GI50 [10]: > 10 µM | growth at 100 µM (MDA-MB-468): -44% | growth at 10 µM (NCI-H460 [11]): 79.4% | TGI (CCRF-CEM [12]): 5.52 µM | GI50 (CCRF-CEM [12]; 48 h): 2.07 µM | growth at 10 µM (K562 [13]): -17.6% | CC50 (SK-MEL-5; 48 h): 2.89 µM | GI50 (SK-MEL-5; Homo sapiens, SK-MEL-5): 1.63 µM | TGI (SK-MEL-5; Homo sapiens, SK-MEL-5): 3.07 µM | CC50 (SK-MEL-5; Homo sapiens, SK-MEL-5, 48 h): 5.76 µM | growth at 0.01 µM (MOLT-4): 100% | growth at 0.1 µM (CCRF-CEM [14]): 98% | growth at 10 µM (SF-268 [15]): 81.2% | growth at 100 µM (HOP-92): -72% | growth at 100 µM (SF-268 [16]): -59% | growth at 0.01 µM (OVCAR-3): 105% | growth at 1 µM (CAKI-1): 91%
